According to patent US11214578B2, “Urea/carbamates FAAH MAGL or dual FAAH/MAGL inhibitors and uses thereof” (Northeastern University, priority 2014, dated 2022):
Like-named read-outs stand apart in the source and are kept apart here. One block for each compound: values may come before it.

Assays:
Format in all cases: biochemical
Human MAGL (hMAGL) = target: T1, Human MAGL (hMAGL) (Homo sapiens, UniProt Q99685); test: Fluorescent assay protocol for hMAGL (AHMMCE substrate)
T1 construct: hexahistidine; made in house; host or cells: E. coli
T1 sequence (Q99685 1-303): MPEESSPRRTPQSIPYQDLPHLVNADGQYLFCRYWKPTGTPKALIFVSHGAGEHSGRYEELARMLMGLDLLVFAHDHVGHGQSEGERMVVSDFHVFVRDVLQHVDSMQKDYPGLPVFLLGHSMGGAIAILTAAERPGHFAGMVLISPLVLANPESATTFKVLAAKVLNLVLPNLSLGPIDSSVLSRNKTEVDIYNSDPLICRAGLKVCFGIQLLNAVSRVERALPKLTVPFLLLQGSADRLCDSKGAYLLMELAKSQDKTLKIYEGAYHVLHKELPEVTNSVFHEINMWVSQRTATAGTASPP
In short: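 Hydrolysis of AHMMCE by human MAGL was monitored at 25°C for 120 min, with fluorescence at 360/460 nm recorded every 15 min and converted to 4-methylcoumarin using external standards. IC50 values were derived from triplicate wells at each inhibitor concentration.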

Human FAAH (MBPΔTMhFAAH) = target: T2, Human FAAH (MBPΔTMhFAAH) (Homo sapiens, UniProt O00519); test: Fluorescent assay protocol for hFAAH; settings: human FAAH (MBP fusion, ΔTM), procedure as for rFAAH
T2 construct: made in house; host or cells: E. coli (pMALcE4 vector)
T2 sequence (O00519 30-579 limits assumed): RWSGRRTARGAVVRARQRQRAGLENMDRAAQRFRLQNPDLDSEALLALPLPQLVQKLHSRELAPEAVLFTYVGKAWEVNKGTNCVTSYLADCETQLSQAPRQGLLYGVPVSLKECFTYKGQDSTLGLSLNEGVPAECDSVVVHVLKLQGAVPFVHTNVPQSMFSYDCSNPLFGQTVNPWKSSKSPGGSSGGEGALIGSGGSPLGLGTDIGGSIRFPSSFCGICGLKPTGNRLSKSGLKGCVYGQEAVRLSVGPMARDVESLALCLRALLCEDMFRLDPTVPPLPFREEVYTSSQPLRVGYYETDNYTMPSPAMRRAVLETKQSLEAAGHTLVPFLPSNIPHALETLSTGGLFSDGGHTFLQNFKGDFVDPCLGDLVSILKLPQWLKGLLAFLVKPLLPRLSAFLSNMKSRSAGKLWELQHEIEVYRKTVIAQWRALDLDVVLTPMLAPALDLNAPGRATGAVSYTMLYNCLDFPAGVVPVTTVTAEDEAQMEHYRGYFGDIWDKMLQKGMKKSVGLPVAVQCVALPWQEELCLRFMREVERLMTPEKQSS
In short: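 MBP-fused ΔTM human FAAH from E. coli, pre-incubated 15 min at 25 °C with compound in 50 mM HEPES, 1 mM EDTA, 0.1% BSA, pH 7.4 (DMSO below 8%). Substrate AAMCA 20 μM (2×Km); fluorescence (ex 360/em 460) at 3 h gave % inhibition vs uninhibited control, triplicate, IC50 fitted.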

Rat MAGL (rMAGL) = target: T3, Rat MAGL (rMAGL) (Rattus norvegicus, UniProt Q8R431); test: Fluorescent assay protocol for rMAGL
T3 construct: made in house; host or cells: E. coli
T3 sequence (Q8R431 1-303): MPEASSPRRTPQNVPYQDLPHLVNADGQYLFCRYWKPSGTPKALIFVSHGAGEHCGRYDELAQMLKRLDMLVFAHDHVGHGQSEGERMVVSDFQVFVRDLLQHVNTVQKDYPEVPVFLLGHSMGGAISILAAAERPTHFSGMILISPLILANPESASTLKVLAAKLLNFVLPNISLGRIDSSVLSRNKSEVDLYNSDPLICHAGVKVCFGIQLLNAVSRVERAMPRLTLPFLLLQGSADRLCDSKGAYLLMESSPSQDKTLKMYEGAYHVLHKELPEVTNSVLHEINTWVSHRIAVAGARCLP
In short: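 Rat MAGL run as for the human enzyme: AHMMCE substrate hydrolysis to fluorescent coumarin followed at 25° C. for 120 min, read every 15 min at 360/460 nm.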

ΔTM rat FAAH = target: T4, ΔTM rat FAAH (Rattus norvegicus, UniProt P97612); test: Fluorescent assay protocol for ΔTM rat FAAH (AAMCA substrate); settings: 15 min preincubation, read-out: IC50 rFAAH
T4 construct: Preparation of Transmembrane Domain-Deleted Rat FAAH (ΔTM rFAAH); made in house; host or cells: E. coli
T4 sequence (P97612 30-579 limits assumed): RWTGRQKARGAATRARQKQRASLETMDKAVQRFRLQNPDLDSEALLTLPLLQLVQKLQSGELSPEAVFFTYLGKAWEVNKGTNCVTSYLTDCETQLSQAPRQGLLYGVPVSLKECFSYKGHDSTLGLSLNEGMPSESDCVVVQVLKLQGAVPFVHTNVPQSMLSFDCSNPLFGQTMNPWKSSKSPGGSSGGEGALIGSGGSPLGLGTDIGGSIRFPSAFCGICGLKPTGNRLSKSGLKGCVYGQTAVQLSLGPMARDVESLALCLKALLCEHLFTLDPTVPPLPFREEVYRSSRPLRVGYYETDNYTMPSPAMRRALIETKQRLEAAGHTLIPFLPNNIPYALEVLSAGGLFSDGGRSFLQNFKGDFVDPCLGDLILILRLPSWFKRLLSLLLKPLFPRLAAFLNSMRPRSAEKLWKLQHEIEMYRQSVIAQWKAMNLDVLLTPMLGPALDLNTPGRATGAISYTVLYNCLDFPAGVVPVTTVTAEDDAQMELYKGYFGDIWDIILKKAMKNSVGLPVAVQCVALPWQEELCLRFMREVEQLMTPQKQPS
In short: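 ΔTM rat FAAH (15 μg) was pre-incubated 15 min at 25° C with compound (screening at 1, 10 and 100 μM), then reacted with the fluorigenic substrate AAMCA. Percent inhibition came from fluorescence at 3 h (linear kinetics) relative to no-inhibitor controls, in triplicate.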

[1] = recombinant human MAGL, AHMMCE substrate, 15 min preincubation, read-out: IC50 hMAGL
[2] = recombinant rat MAGL, procedure as for hMAGL, read-out: IC50 rMAGL

Structure (SMILES): O=C(Oc1ccc(Cl)cc1Cl)N1CC(OCc2ccc(Cl)cc2)C1 [Example 79, 2,4-Dichlorophenyl 3-(4-chlorobenzyloxy)azetidine-1-carboxylate]
- IC50 (Human MAGL (hMAGL)): 0.11 to 1 µM
- IC50 (Human FAAH (MBPΔTMhFAAH)): 0.01 to 0.1 µM
- IC50 (Rat MAGL (rMAGL)): 0.11 to 1 µM
- IC50 (ΔTM rat FAAH): 0.01 to 0.1 µM

Structure (SMILES): O=C(Nc1ccccc1)N1CC(OCc2ccc(Cl)cc2)C1 [Example 81, 3-(4-Chlorobenzyloxy)-N-phenylazetidine-1-carboxamide]
- IC50 (Human MAGL (hMAGL); [1]): > 1 µM
- IC50 (Human FAAH (MBPΔTMhFAAH)): 0.11 to 1 µM
- IC50 (Rat MAGL (rMAGL); [2]): > 1 µM
- IC50 (ΔTM rat FAAH): 0.11 to 1 µM

Structure (SMILES): O=C(Nc1cccnc1)N1CC(OCc2ccc(Br)cc2)C1 [Example 82, 3-(4-Bromobenzyloxy)-N-(pyridin-3-yl)azetidine-1-carboxamide]
- IC50 (Human MAGL (hMAGL); [1]): > 1 µM
- IC50 (Human FAAH (MBPΔTMhFAAH)): 0.11 to 1 µM
- IC50 (Rat MAGL (rMAGL); [2]): > 1 µM
- IC50 (ΔTM rat FAAH): 0.11 to 1 µM

Structure (SMILES): O=C(N1CC(N2CCC(c3ccccc3)CC2)C1)n1cnc2ccccc21 [Example 83, (1H-Benzo[d]imidazol-1-yl)(3-(4-phenylpiperidin-1-yl)azetidin-1-yl)methanone]
- IC50 (Human MAGL (hMAGL); [1]): > 1 µM
- IC50 (Human FAAH (MBPΔTMhFAAH)): 0.01 to 0.1 µM
- IC50 (Rat MAGL (rMAGL); [2]): > 1 µM
- IC50 (ΔTM rat FAAH): 0.01 to 0.1 µM

Structure (SMILES): O=C(N1CC(N2CCC(Cc3ccccc3)CC2)C1)n1cnc(-c2ccccc2)c1 [Example 84, (3-(4-Benzylpiperidine)azetidin-1-yl)(4-phenyl[1H]imizadol-1-yl)methanone]
- IC50 (Human MAGL (hMAGL); [1]): > 1 µM
- IC50 (Human FAAH (MBPΔTMhFAAH)): 0.01 to 0.1 µM
- IC50 (Rat MAGL (rMAGL); [2]): > 1 µM
- IC50 (ΔTM rat FAAH): 0.01 to 0.1 µM

Structure (SMILES): O=C(N1CC(N2CCC(c3ccccc3)CC2)C1)n1cnc(-c2ccccc2)c1 [Example 85, (4-Phenyl-1H-imidazol-1-yl)(3-(4-phenylpiperidin-1-yl)azetidin-1-yl)methanone]
- IC50 (Human MAGL (hMAGL); [1]): > 1 µM
- IC50 (Human FAAH (MBPΔTMhFAAH)): 0.01 to 0.1 µM
- IC50 (Rat MAGL (rMAGL); [2]): > 1 µM
- IC50 (ΔTM rat FAAH): 0.01 to 0.1 µM

Structure (SMILES): O=C(N1CC(OCc2ccc(Br)cc2)C1)n1cnc(-c2ccccc2)c1 [Example 86, (3-(4-Bromobenzyloxy)azetidin-1-yl)(4-phenyl-1H-imidazol-1-yl)methanone]
- IC50 (Human MAGL (hMAGL); [1]): > 1 µM
- IC50 (Human FAAH (MBPΔTMhFAAH)): 0.01 to 0.1 µM
- IC50 (Rat MAGL (rMAGL); [2]): > 1 µM
- IC50 (ΔTM rat FAAH): 0.01 to 0.1 µM

Structure (SMILES): NC(=O)c1cccc(-c2cccc(NC(=O)N3C[C@@H]4C[C@H]3CN4Cc3ccc4ccccc4n3)c2)c1 [Example 92, (1S,4S)—N-(3′-carbamoyl-[1,1′-biphenyl]-3-yl)-5-(quinolin-2-ylmethyl)-2,5-diazabicyclo[2.2.1]heptane-2-carboxamide]
- IC50 (Human MAGL (hMAGL); [1]): > 1 µM
- IC50 (Human FAAH (MBPΔTMhFAAH)): > 1 µM
- IC50 (Rat MAGL (rMAGL); [2]): > 1 µM
- IC50 (ΔTM rat FAAH): > 1 µM

Now from value to compound:

- IC50 (Human MAGL (hMAGL); [1]): > 1 µM
- IC50 (Human FAAH (MBPΔTMhFAAH)): 0.01 to 0.1 µM
- IC50 (Rat MAGL (rMAGL); [2]): > 1 µM
- IC50 (ΔTM rat FAAH): 0.01 to 0.1 µM
Structure (SMILES): COc1cccc(OC(=O)N2CC(OCc3ccc(Br)cc3)C2)c1 [Example 78, 3-Methoxyphenyl 3-(4-Bromobenzyloxy)azetidine-1-carboxylate]

- IC50 (Human MAGL (hMAGL); [1]): > 1 µM
- IC50 (Human FAAH (MBPΔTMhFAAH)): 0.01 to 0.1 µM
- IC50 (Rat MAGL (rMAGL); [2]): > 1 µM
- IC50 (ΔTM rat FAAH): 0.01 to 0.1 µM
Structure (SMILES): O=C(Oc1cccc(-c2cccnc2)c1)N1CC(OCc2ccc(Cl)cc2)C1 [Example 80, 3-(Pyridin-3-yl)phenyl 3-(4-chlorobenzyloxy)azetidine-1-carboxylate]

- IC50 (Human MAGL (hMAGL); [1]): 0.01 to 0.1 µM
- IC50 (Human FAAH (MBPΔTMhFAAH)): 0.01 to 0.1 µM
- IC50 (Rat MAGL (rMAGL); [2]): 0.01 to 0.1 µM
- IC50 (ΔTM rat FAAH): 0.01 to 0.1 µM
Structure (SMILES): O=C(N1CC(OCc2ccc(Br)cc2)C1)n1cnc2ccccc21 [Example 87, (1H-Benzo[d]imidazol-1-yl)(3-(4-Bromobenzyloxy)azetidin-1-yl)methanone]

- IC50 (Human MAGL (hMAGL); [1]): 0.01 to 0.1 µM
- IC50 (Human FAAH (MBPΔTMhFAAH)): 0.01 to 0.1 µM
- IC50 (Rat MAGL (rMAGL); [2]): 0.01 to 0.1 µM
- IC50 (ΔTM rat FAAH): 0.01 to 0.1 µM
Structure (SMILES): O=C(N1CCCCC1)N1CC(OCc2ccc(Br)cc2)C1 [Example 88]

- IC50 (Human MAGL (hMAGL); [1]): 0.01 to 0.1 µM
- IC50 (Human FAAH (MBPΔTMhFAAH)): 0.01 to 0.1 µM
- IC50 (Rat MAGL (rMAGL); [2]): 0.01 to 0.1 µM
- IC50 (ΔTM rat FAAH): 0.01 to 0.1 µM
Structure (SMILES): O=C(N1CC(N2CCC(c3ccccc3)CC2)C1)n1cccn1 [Example 89, (3-(4-Phenylpiperidin-1-yl)azetidin-1-yl)(1H-pyrazol-1-yl)methanone]

- IC50 (Human MAGL (hMAGL); [1]): 0.01 to 0.1 µM
- IC50 (Human FAAH (MBPΔTMhFAAH)): 0.01 to 0.1 µM
- IC50 (Rat MAGL (rMAGL); [2]): 0.01 to 0.1 µM
- IC50 (ΔTM rat FAAH): 0.01 to 0.1 µM
Structure (SMILES): O=C(N1CC(N2CCC(c3ccccc3)CC2)C1)n1cncn1 [Example 90]

- IC50 (Human MAGL (hMAGL); [1]): 0.01 to 0.1 µM
- IC50 (Human FAAH (MBPΔTMhFAAH)): 0.01 to 0.1 µM
- IC50 (Rat MAGL (rMAGL); [2]): 0.01 to 0.1 µM
- IC50 (ΔTM rat FAAH): 0.01 to 0.1 µM
Structure (SMILES): O=C(N1CC(Sc2ccc(Br)cc2)C1)n1cncn1 [Example 91]
